# Experimental data as given in US10071051B2, “WT1 peptide cancer vaccine composition for transdermal administration” (NITTO DENKO CORPORATION, priority 2013, dated 2018).
# System: IFN-γ-producing cells (antigen-specific cellular immunity)
# Assay: Mouse immunization test 2 (tape preparation), IFN-γ ELISPOT
# Assay type: in vivo, genetically modified mouse
# Conditions: compared with acid-free comparative example
# Description: (§1) Mouse immunization test was performed with the cream formulations using a model animal for immunological evaluation. Evaluation of the immunity induction level was performed by the ELISPOT method. Specifically, the hair of the back of the mouse was cut. The mouse was kept until it recovered from the skin damage due to the hair cutting. After that, a sample was applied to the back of the mouse for the predetermined time, and then removed. Then, the mouse was kept for predetermined days and the level of the antigen-specific cellular immunity was evaluated. After predetermined days from the application of the sample, the spleen was isolated and a spleen cell suspension was prepared. Spleen cells (3×10^6 cells/well) and the antigen peptide (100 μM) together with the culturing medium were placed into a well of an ELISPOT plate on which an anti-mouse IFN-γ antibody had been immobilized. The plate was cultured for 20 hours under the condition of 37° C. and 5% CO2. The number of the spots representing IFN-γ-producing cells (spot number/3×10^6 cells) was evaluated by the ELISPOT method. In all cases, 4 mg of the cream formulation was applied once for 24 hours and the spleen was isolated 6 days after the completion of the application.
# Mouse Immunization Test 2 (Tape Preparation)
# Using thus obtained tape preparation, mouse immunization test 2 was performed in the same manner as in the mouse immunization test 1. The preparation was applied once for 24 hours/week and a spleen was isolated 6 days after administration. Genetically modified mouse which can be used to evaluate the cellular immunity inducing ability of the HLA-A*0201 type MHC restricted peptide was used as model animal for immunological evaluation.
# In Example 69, the skin was injured with a microcutter (MICRO FEATHER No. 7330G, manufactured by FEATHER) before the application of the preparation.
row,Compound,"cellular immunity induction, in words (acid blended in tape preparation)"
1,CC(O)C(=O)O (stereo not drawn) [lactic acid],excellent results
2,CCCCCCCCCC(=O)O [decanoic acid],strong cellular immunity was induced
3,CCCCCCCCCCCCCC(=O)O [myristic acid],excellent results
4,CC(C)CCCCCCCCCCCCCCC(=O)O [isostearic acid],excellent results
5,CCCCCCCCCCCC(=O)O [lauric acid],excellent results
6,CCCCCCCC/C=C\CCCCCCCC(=O)O [oleic acid],excellent results

# System: IFN-γ-producing cells (antigen-specific cellular immunity)
# Assay: Mouse immunization test 3 (liquid formulation for external use), IFN-γ ELISPOT
# Assay type: in vivo, C57BL/6 mouse
# Conditions: compared with acid-free comparative example
# Description: as §1
# Mouse Immunization Test 3 (Liquid Formulation for External Use)
# Using a liquid formulation for external use produced as described above, mouse immunization test was performed in the same manner as that in the mouse immunization test 1. The dose was 67 μL as described above. The liquid formulation was applied once for 24 hours/week and a spleen was isolated 6 days after completion of the application. The mouse used was a C57BL/6.
row,Compound,"cellular immunity induction, in words (acid added to liquid formulation)"
1,O=C(O)c1ccccc1O [salicylic acid],effective
2,O=C(O)CC(O)C(=O)O (racemic) [malic acid],effective
3,CS(=O)(=O)O [methanesulfonic acid],effective
4,CC(O)C(=O)O (stereo not drawn) [lactic acid],effective
5,O=C(O)/C=C\C(=O)O [maleic acid],effective
6,O=C(O)CC(O)(CC(=O)O)C(=O)O [citric acid],effective
